Square brackets hold non-standard residues; d marks the D form. Peptide text beside a SMILES is read from it. Sar = CNCC(=O)O

Series [1] has as its target T1, proton-coupled peptide transporter (Oryctolagus cuniculus, UniProt P36836).
T1 construct: Xenopus laevis oocytes were injected with cRNA coding the proton-coupled peptide transporter; expressed in transfected cells; host or cells: Xenopus laevis oocytes injected with cRNA transcribed in vitro from the cloned cDNA
T1 sequence (P36836 1-707): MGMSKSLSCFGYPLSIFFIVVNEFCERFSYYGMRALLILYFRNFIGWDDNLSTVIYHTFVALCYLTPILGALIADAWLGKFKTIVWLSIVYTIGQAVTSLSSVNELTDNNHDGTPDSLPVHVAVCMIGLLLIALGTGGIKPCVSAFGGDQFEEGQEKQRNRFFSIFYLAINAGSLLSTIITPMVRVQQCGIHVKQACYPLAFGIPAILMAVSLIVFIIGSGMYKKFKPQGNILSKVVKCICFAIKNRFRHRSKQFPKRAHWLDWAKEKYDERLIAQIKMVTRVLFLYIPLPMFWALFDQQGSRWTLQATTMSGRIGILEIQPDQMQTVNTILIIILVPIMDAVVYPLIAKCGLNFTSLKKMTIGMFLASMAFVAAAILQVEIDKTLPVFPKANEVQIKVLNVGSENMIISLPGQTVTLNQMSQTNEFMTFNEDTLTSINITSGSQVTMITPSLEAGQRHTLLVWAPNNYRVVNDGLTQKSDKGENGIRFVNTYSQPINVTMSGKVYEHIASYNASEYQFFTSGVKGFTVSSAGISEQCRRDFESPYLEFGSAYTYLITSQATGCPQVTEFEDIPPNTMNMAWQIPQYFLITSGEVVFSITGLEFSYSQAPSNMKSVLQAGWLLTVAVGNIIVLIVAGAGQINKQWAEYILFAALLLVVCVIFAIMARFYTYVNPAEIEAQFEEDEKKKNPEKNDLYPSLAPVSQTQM
Put plainly: Two-electrode voltage clamp of Xenopus laevis oocytes injected with transporter cRNA: substrate-evoked inward currents and Km. It is filed as cell-based, rabbit. The settings on record: uptake solution pH 5.5. The source says: These oocytes were subjected to two electrode voltages clamp analysis (Gene Clamp 500, Axon Instruments, California) in the manner described in Kanaisy & Hediger, M. A. Nature 360, 467-71 (1992).
FIG. 9 depicts electrophysiological measurements of transformed cocytes as a percent of glycyl-sarcosine evoked current. Data representing glycyl-sarcosine are depicted as a solid black bar. Data representing peptide are depicted with dotted bars. Data representing antibiotics are depicted with hatched bars.
By altering peptide concentrations, current amplitudes for different compositions, Km values were determined.

Series [2] has as its target T1, proton-coupled peptide transporter. The series is described as follows: Stoichiometry (uptake versus net charge flux) and cumulative C14-glycyl-sarcosine uptake in cRNA-transformed oocytes. It is filed as cell-based, rabbit. The method, then:
(§1) Internal pH measurements were taken with microelectrodes, silanized borosilicate pipettes with tips filled with a hydrogen ionophore (I-cocktail B, Fluka). The membrane potential was measured in uptake solution (pH 5.5) containing 1 mM glycyl-sarcosine. After washing with uptake solution without glycyl-sarcosine, each oocyte was clamped at this membrane potential. […] The equation used to calculate the electrochemical potential difference for H^+ (ΔμH) was ΔμH +=RT 1n ([H^+ ] i/[H^+ ]o)+zF (Vi -Vo) and that for Gly-Sar (ΔμGly-Sar) was ΔμGly-Sar =RT 1n ([Gly-Sar] i/ [Gly-Sar]o), where; R is the gas constant, T the absolute temperature (295° K.), F is Faraday's constant, pHi and pHo the intra- and extracellular pH, Gly-Sari and Gly-Saro, the intra-and extracelluar Gly-Sar concentrations, and z the valency.
This 1:1 coupling ratio is consistent with analysis of the coupling ratio based on thermodynamic considerations. Cumulative uptake of C^14 -glycyl-sarcosine was measured as depicted in FIG. 14.
Data represent the average of the uptakes from 20-24 oocytes after subtraction of the uptakes of water-injected oocytes. After a ten hour incubation in 1 mM non-radiolabeled 1 mM glycyl-sarcosine, the ^14 C-glycyl-sarcosine influx was 1754±403 (n=7) pmol/oocyte.

The test system of another series is Xenopus laevis oocytes. The series is described as follows: Thin-layer chromatography of solubilized oocytes incubated in 14C-Gly-Sar (hydrolysis). The class given is in vitro ADME. The settings on record: 1 mM 14C-Gly-Sar, pH 5.5, seven hours.
Series [3] deals with T1, proton-coupled peptide transporter. The series is described as follows: Intracellular pH (pH-sensitive microelectrode) and membrane potential of cRNA-transformed oocytes. It is filed as cell-based, rabbit. The note with it: pHo 5.5 solution, Gly-Sar 10 mM; for membrane potential Vm after application: depolarized from -20 mV.
Description: The example describes hydrogen ion cotransport by Xenopus laevis oocytes transformed with cRNA coding a proton-coupled peptide transporter. Transformed Xenopus laevis oocytes of Example 5 and 6 were implanted with microelectrodes and membrane potential set with electrodes.
as §1, with “The membrane potential was measured in uptake solution (pH 5.5) containing 1 mM glycyl-sarcosine.” left out
Oocytes were initially kept in pH 7.4 medium (96 mM NaCl, 1 mM KCl, 1.8 mM CaCl2, 1.0 mM MgCl2 and 5 HEPES). […] In water-injected oocytes, lowering pHo from 7.4 to 5.5 caused a continuous pHi decrease which was not dependent on the expression of the proton-coupled peptide transporter.

Series [4] has the same target. The series is described as follows: C14-glycyl-sarcosine uptake in cRNA-transformed oocytes in sodium-free or chloride-free solutions and at different pH. The class given is cell-based, rabbit. The text has this:
This example describes the stoichiometry and voltage dependence of the proton-coupled peptide transporter. Four days after transformation with cRNA coding the proton-coupled peptide transporter, Xenopus laevis oocytes were examined in the presence of 1 mMC^14 -glycyl-sarcosine in standard uptake solution (pH 5.5), modified to be sodium or chloride ion free.
In sodium-free solutions, the sodium chloride was replaced with choline-chloride. In chloride free solutions, the sodium chloride was replaced with sodium nitrate.
Glycyl-sarcosine uptake was determined from the slope of the time-dependence of 1 to 5 minutes uptake. The results are depicted in bar graph form in FIG. 10. […] That is, the presence of or absence of sodium ion and the presence or absence of chloridion had little or no effect on glycyl-sarcosine uptake. In each instance the uptake was approximately 1000 pmol glycyl-sarcosine.
In this example Xenopus laevis oocytes transformed with cRNA coding the proton-coupled peptide transporter of the preceding example were evaluated for C^14 -glycyl-sarcosine uptake in the standard uptake solutions modified to different pH. Glycyl-sarcosine uptake was determined from the slope of time-dependence of 1 to 5 minute uptakes.

The target is the same in series [5]. The series is described as follows: Hybrid depletion of rabbit small intestine poly(A)+ RNA with antisense/sense DNA oligonucleotide before oocyte injection, glycyl-sarcosine uptake. It is filed as cell-based. The settings on record: oocytes receiving rabbit poly(A)+ RNA without sense or antisense nucleic acid. The source says: This example describes hybrid depletion of rabbit small intestine poly(A)^+ RNA before injection into Xenopus laevis oocytes. A first admixture was formed of rabbit small intestine derived poly(A)^+ RNA and an antisense DNA oligonucleotide corresponding to the 5'-end coding region of cDNA corresponding to the proton-coupled peptide transporter.
A second admixture was formed of rabbit small intestine derived poly(A)^+ RNA and a sense DNA oligonucleotide corresponding to the same region as the antisense DNA. Both DNAs were twenty-three nucleotides in length. Rabbit jejunum poly(A)^+ RNA (0.5 μg/μl) was incubated with the oligonucleotide (0.25 μg/μl in the presence of 50 mM NaCl at 42° C. for one hour and then injected into oocytes. The uptake of the peptide, glycyl-sarcosine, was measured three days after injection.

The target is the same in series [6]. The series is described as follows: Uptake of C14-glycyl-sarcosine by Xenopus laevis oocytes injected with rabbit jejunum poly(A)+ RNA or transporter cRNA. It is filed as cell-based. The settings on record: 100 μM C14-Gly-Sar, 1 hour, pH 5.5. The method, then:
This example describes the uptake of radiolabeled glycyl-sarcosine (C^14 -Gly-Sar) by Xenopus laevis oocytes injected with poly(A)^+ RNA from rabbit jejunum or with cRNA synthesized by in vitro transcription of proton-coupled peptide transporter cDNA.
All uptakes in this and the following figures were performed with 6-8 oocytes, 3 days after injection. RNA-injected oocytes were injected with 25 ng cRNA in 50 nl.
Oocytes injected with cRNA coding a proton-coupled peptide transporter were incubated for 1 hour in uptake solution (100 mM NaCl, 2 mM KCl 1 mM MgCl2, 1 mM CaCl2, 3 mM HEPES, 3 mM MES, 3 mM Tris, pH 5.5) in the presence of 100 μM C^14 -glycol-sarcosine (specific radioactivity, 112 mCi/mmol, custom synthesized by the Radiochemical Center, Amersham, U.K.). The oocytes were rinsed with ice-cold washing solution (uptake solution with pH adjusted to 7.5 with Tris base) and the radioactivity of each oocyte was measured by scintillation counting.

The target in series [7] is proton-coupled peptide transporter derived from rabbit (rabbit).
For series [8] the target is unchanged. The source holds these as a separate data set.
Substrate in series [9]: CC(C)C[C@H](NC(=O)CN)C(=O)O
Put plainly: cells, lysate or membranes. The class given is cell-based, rabbit. The settings on record: other: current amplitudes at altered substrate concentrations, pH 5.5, cRNA-injected oocytes.

Substrate in series [10]: CN(CC(=O)O)C(=O)CN
The series is described as follows: cells, lysate or membranes. It is filed as cell-based, rabbit. The settings on record: other: current amplitudes at altered substrate concentrations, pH 5.5, cRNA-injected oocytes.

Substrate in series [11]: C[C@H](N)C(=O)N[C@@H](CC(=O)O)C(=O)O
The series is described as follows: cells, lysate or membranes. The class given is cell-based, rabbit. The settings on record: other: current amplitudes at altered substrate concentrations, pH 5.5, cRNA-injected oocytes.

Substrate in series [12]: CC1(C)S[C@@H]2[C@H](NC(=O)C3(N)CCCCC3)C(=O)N2[C@H]1C(=O)O
Put plainly: cells, lysate or membranes. The note with it: other: current amplitudes at altered substrate concentrations, pH 5.5, cRNA-injected oocytes.

Substrate in series [13]: NCC(=O)NCC(=O)NCC(=O)O
The series is described as follows: cells, lysate or membranes. The settings on record: other: current amplitudes at altered substrate concentrations, pH 5.5, cRNA-injected oocytes.

Turning to `CC1(C)S[C@@H]2[C@H](NC(=O)C3(N)CCCCC3)C(=O)N2[C@H]1C(=O)O` [Cyclacillin], the substrate-evoked inward current result in series [1] is recorded as “inward current”.
For the molecule `CC(C)C[C@H](NC(=O)CN)C(=O)O` [Glycyl-leucine], the substrate-evoked inward current entry in [1] is listed as “inward current”.
`CN(CC(=O)O)C(=O)CN` [Glycyl-sarcosine, glycyl-sarcosine] (H-Gly-[Sar]-OH): the “time to thermodynamic equilibrium of cumulative uptake” value in series [2] (C14-glycyl-sarcosine, cRNA-transformed oocytes) is on record as “approximately eight”. The 14C-glycyl-sarcosine influx in [2] (after ten hour incubation in 1 mM non-radiolabeled glycyl-sarcosine, n=7) was 1754±403 pmol/oocyte. Besides, in the series with Xenopus laevis oocytes, the “fraction of intracellular 14C-label that is hydrolyzed glycyl-sarcosine” value is “no more than one third”. Further, the “membrane potential Vm after application” value in series [3] was “+15 mV”. The “effect on intracellular pH (pHi)” value in [3] (listed as Gly-Sar) is recorded as “large intracellular acidification”; in series [3] (listed as glycyl-sarcosine) it was “decrease in pH”. Besides, the glycyl-sarcosine uptake result in series [4] (1 mM C14-glycyl-sarcosine, pH 5.5, presence or absence of sodium or chloride ion) was “approximately 1000 pmol”. In addition, the “pH of maximum glycyl-sarcosine uptake” value in series [4] (standard uptake solutions modified to different pH) was determined as 5.5. Also, in series [1], the substrate-evoked inward current result is on record as “strongest current”. Also, the uptake of glycyl-sarcosine result in series [5] is “approximately 8 pmol”; in series [6] (oocytes receiving rabbit jejunum poly(A)+ RNA), “less than 20 pmol”; in [6] (oocytes receiving transporter cRNA), roughly 200 pmol.
Consider `CC1=C(C(=O)O)N2C(=O)[C@@H](NC(=O)[C@H](N)c3ccc(O)cc3)[C@H]2SC1` [cefadroxil], for which the substrate-evoked inward current result in series [1] is recorded as “Significant currents”.
Turning to `CC1=C(C(=O)O)N2C(=O)[C@@H](NC(=O)[C@H](N)C3=CCC=CC3)[C@H]2SC1` [cephradine], the substrate-evoked inward current result in series [1] is “Significant currents”.
As for `NCC(=O)O` [glycine], in [3], the “effect on intracellular pH (pHi)” value is “no detectable response” and the “membrane potential Vm after application” value was “no detectable response”.
Turning to glycyl-sarcosine (peptide), in series [7], the uptake of C14-glycyl-sarcosine by oocytes came to 200 pmol. Besides, the Km from current amplitudes in series [8] was 1900 µM.

B1: proton-coupled peptide transporter (Oryctolagus cuniculus) (protein)
chain: T1 sequence (P36836 1-707)
notes: Xenopus laevis oocytes were injected with cRNA coding the proton-coupled peptide transporter; expressed in transfected cells; host or cells: Xenopus laevis oocytes injected with cRNA transcribed in vitro from the cloned cDNA
As for B1, the Michaelis constant (Km) in series [9] was found to be 81 µM; in series [10], 1900 µM; in series [11], 143 µM; in series [12], 137 µM; in series [13] it was 5100 µM.

(Values after patent US5849525A, “Compositions corresponding to a proton-coupled peptide transporter and methods of making and using same” (Brigham and Women's Hospital, Inc., priority 1995, dated 1998).)
